Source: patent publication US10966978B2, “Dose and regimen for HDM2-p53 interaction inhibitors” (Novartis AG, priority 2016, dated 2021)
Read-outs that look alike come from different tables or passages of the source.

Tested on: patients with advanced TP53 wild-type (WT) leukemias
Excerpt: Patients with Ph+ ALL who show early markers of relapse in MRD surveillance can be considered for inclusion as long as other therapies such as TKIs are exhausted or cannot be given. • Tumor of the patient is TP53 wt characterized by, at a minimum, no mutations in exons 5, 6, 7 and 8, and the p53 status was obtained from a bone-marrow sample, collected no longer than 3 months before signing the main ICF. Safety and Tolerability Profile of Regimen 1B in Hematological Tumors

SMILES: COc1ncc(-c2nc3c(n2C(C)C)[C@H](c2ccc(Cl)cc2)N(c2cc(Cl)cn(C)c2=O)C3=O)c(OC)n1 [HDM201, (S)-5-(5-Chloro-1-methyl-2-oxo-1,2-dihydro-pyridin-3-yl)-6-(4-chloro-phenyl)-2-(2,4-dimethoxy-pyrimidin-5-yl)-1-isopropyl-5,6-dihydro-1H-pyrrolo[3,4-d]imidazol-4-one]
- AE: Blood Creatinine Increased (Regimen 2A N = 7, All Grades): 1 (14.3) n (%)
- AE: Blood Phosphorus Increased (Regimen 2A N = 7, All Grades): 0 n (%)
- AE: Blood Uric Acid Increased (Regimen 2A N = 7, All Grades): 0 n (%)
- AE: Bone Marrow Failure (Regimen 2A N = 7, All Grades): 1 (14.3) n (%)
- AE: C-Reactive Protein Increased (Regimen 2A N = 7, All Grades): 1 (14.3) n (%)
- AE: Cardiac Failure (Regimen 2A N = 7, All Grades): 0 n (%)
- AE: Cellulitis (Regimen 2A N = 7, All Grades): 0 n (%)
- AE: Chronic Graft Versus Host Disease (Regimen 2A N = 7, All Grades): 0 n (%)
- AE: Conjunctival Haemorrhage (Regimen 2A N = 7, All Grades): 0 n (%)
- AE: Cough (Regimen 2A N = 7, All Grades): 0 n (%)
- AE: Cystitis Viral (Regimen 2A N = 7, All Grades): 0 n (%)
- AE: Cytomegalovirus Infection (Regimen 2A N = 7, All Grades): 1 (14.3) n (%)
- AE: Decreased Appetite (Regimen 2A N = 7, All Grades): 1 (14.3) n (%)
- AE: Diarrhoea (Regimen 2A N = 7, All Grades): 0 n (%)
- AE: Dyspepsia (Regimen 2A N = 7, All Grades): 1 (14.3) n (%)
- AE: Dyspnoea (Regimen 2A N = 7, All Grades): 0 n (%)
- AE: Epistaxis (Regimen 2A N = 7, All Grades): 0 n (%)
- AE: Fatigue (Regimen 2A N = 7, All Grades): 0 n (%)
- AE: Febrile Neutropenia (Regimen 2A N = 7, All Grades): 2 (28.6) n (%)
- AE: Gamma-Glutamyltransferase Increased (Regimen 2A N = 7, All Grades): 0 n (%)
- AE: General Physical Health Deterioration (Regimen 2A N = 7, All Grades): 0 n (%)
- AE: Gingival Bleeding (Regimen 2A N = 7, All Grades): 0 n (%)
- AE: Graft Versus Host Disease (Regimen 2A N = 7, All Grades): 0 n (%)
- AE: Haemoglobin Decreased (Regimen 2A N = 7, All Grades): 0 n (%)
- AE: Headache (Regimen 2A N = 7, All Grades): 0 n (%)
- AE: Hyperbilirubinaemia (Regimen 2A N = 7, All Grades): 1 (14.3) n (%)
- AE: Hyperglycaemia (Regimen 2A N = 7, All Grades): 0 n (%)
- AE: Hyperkalaemia (Regimen 2A N = 7, All Grades): 0 n (%)
- AE: Hyperphosphataemia (Regimen 2A N = 7, All Grades): 0 n (%)
- AE: Hyperuricaemia (Regimen 2A N = 7, All Grades): 1 (14.3) n (%)
- AE: Hypoalbuminaemia (Regimen 2A N = 7, All Grades): 0 n (%)
- AE: Hypocalcaemia (Regimen 2A N = 7, All Grades): 0 n (%)
- AE: Hypokalaemia (Regimen 2A N = 7, All Grades): 0 n (%)
- AE: Hypomagnesaemia (Regimen 2A N = 7, All Grades): 0 n (%)
- AE: Hyponatraemia (Regimen 2A N = 7, All Grades): 0 n (%)
- AE: Hypophosphataemia (Regimen 2A N = 7, All Grades): 0 n (%)
- AE: Hypotension (Regimen 2A N = 7, All Grades): 0 n (%)
- AE: Infection (Regimen 2A N = 7, All Grades): 0 n (%)
- AE: Infective Glossitis (Regimen 2A N = 7, All Grades): 0 n (%)
- AE: Iron Overload (Regimen 2A N = 7, All Grades): 0 n (%)
- AE: Leukopenia (Regimen 2A N = 7, All Grades): 0 n (%)
- AE: Lip Oedema (Regimen 2A N = 7, All Grades): 0 n (%)
- AE: Lipase Increased (Regimen 2A N = 7, All Grades): 0 n (%)
- AE: Macular Oedema (Regimen 2A N = 7, All Grades): 0 n (%)
- AE: Malaise (Regimen 2A N = 7, All Grades): 1 (14.3) n (%)
- AE: Mouth Haemorrhage (Regimen 2A N = 7, All Grades): 0 n (%)
- AE: Nausea (Regimen 2A N = 7, All Grades): 3 (42.9) n (%)
- AE: Neutropenia/Neutrophil Count Decreased (Regimen 2A N = 7, All Grades): 1 (14.3) n (%)
- AE: Oedema (Regimen 2A N = 7, All Grades): 0 n (%)
- AE: Oedema Peripheral (Regimen 2A N = 7, All Grades): 0 n (%)
- AE: Oral Disorder (Regimen 2A N = 7, All Grades): 0 n (%)
- AE: Pain In Extremity (Regimen 2A N = 7, All Grades): 0 n (%)
- AE: Pancytopenia (Regimen 2A N = 7, All Grades): 0 n (%)
- AE: Pneumonia (Regimen 2A N = 7, All Grades): 0 n (%)
- AE: Pollakiuria (Regimen 2A N = 7, All Grades): 0 n (%)
- AE: Pyrexia (Regimen 2A N = 7, All Grades): 1 (14.3) n (%)
- AE: Rash (Regimen 2A N = 7, All Grades): 0 n (%)
- AE: Rash Erythematous (Regimen 2A N = 7, All Grades): 0 n (%)
- AE: Rash Papular (Regimen 2A N = 7, All Grades): 0 n (%)
- AE: Rectal Haemorrhage (Regimen 2A N = 7, All Grades): 0 n (%)
- AE: Renal Failure (Regimen 2A N = 7, All Grades): 0 n (%)
- AE: Skin Exfoliation (Regimen 2A N = 7, All Grades): 0 n (%)
- AE: Stomatitis (Regimen 2A N = 7, All Grades): 0 n (%)
- AE: Subarachnoid Haemorrhage (Regimen 2A N = 7, All Grades): 0 n (%)
- AE: Thrombocytopenia/Platelet Count Decreased (Regimen 2A N = 7, All Grades): 2 (28.6) n (%)
- AE: Total (Regimen 2A N = 7, All Grades): 5 (71.4) n (%)
- AE: Tumour Lysis Syndrome (Regimen 2A N = 7, All Grades): 1 (14.3) n (%)
- AE: Vomiting (Regimen 2A N = 7, All Grades): 1 (14.3) n (%)
- AE: Weight Decreased (Regimen 2A N = 7, All Grades): 0 n (%)
- AE: White Blood Cell Count Decreased (Regimen 2A N = 7, All Grades): 1 (14.3) n (%)
- AE: Abdominal Discomfort (Regimen 2A N = 7, Grade 3/4): 0 n (%)
- AE: Abdominal Pain (Regimen 2A N = 7, Grade 3/4): 0 n (%)
- AE: Abdominal Pain Upper (Regimen 2A N = 7, Grade 3/4): 0 n (%)
- AE: Acute Kidney Injury (Regimen 2A N = 7, Grade 3/4): 0 n (%)
- AE: Amylase Increased (Regimen 2A N = 7, Grade 3/4): 0 n (%)
- AE: Anaemia (Regimen 2A N = 7, Grade 3/4): 2 (28.6) n (%)
- AE: Arthralgia (Regimen 2A N = 7, Grade 3/4): 0 n (%)
- AE: Asthenia (Regimen 2A N = 7, Grade 3/4): 0 n (%)
- AE: Atrial Fibrillation (Regimen 2A N = 7, Grade 3/4): 0 n (%)
- AE: Atypical Pneumonia (Regimen 2A N = 7, Grade 3/4): 0 n (%)
- AE: Balanitis Candida (Regimen 2A N = 7, Grade 3/4): 0 n (%)
- AE: Blood Alkaline Phosphatase Increased (Regimen 2A N = 7, Grade 3/4): 0 n (%)
- AE: Blood Bilirubin Increased (Regimen 2A N = 7, Grade 3/4): 0 n (%)
- AE: Blood Creatinine Increased (Regimen 2A N = 7, Grade 3/4): 0 n (%)
- AE: Blood Phosphorus Increased (Regimen 2A N = 7, Grade 3/4): 0 n (%)
- AE: Blood Uric Acid Increased (Regimen 2A N = 7, Grade 3/4): 0 n (%)
- AE: Bone Marrow Failure (Regimen 2A N = 7, Grade 3/4): 1 (14.3) n (%)
- AE: C-Reactive Protein Increased (Regimen 2A N = 7, Grade 3/4): 1 (14.3) n (%)
- AE: Cardiac Failure (Regimen 2A N = 7, Grade 3/4): 0 n (%)
- AE: Cellulitis (Regimen 2A N = 7, Grade 3/4): 0 n (%)
- AE: Chronic Graft Versus Host Disease (Regimen 2A N = 7, Grade 3/4): 0 n (%)
- AE: Conjunctival Haemorrhage (Regimen 2A N = 7, Grade 3/4): 0 n (%)
- AE: Cough (Regimen 2A N = 7, Grade 3/4): 0 n (%)
- AE: Cystitis Viral (Regimen 2A N = 7, Grade 3/4): 0 n (%)
- AE: Cytomegalovirus Infection (Regimen 2A N = 7, Grade 3/4): 0 n (%)
- AE: Decreased Appetite (Regimen 2A N = 7, Grade 3/4): 0 n (%)
- AE: Diarrhoea (Regimen 2A N = 7, Grade 3/4): 0 n (%)
- AE: Dyspepsia (Regimen 2A N = 7, Grade 3/4): 0 n (%)
- AE: Dyspnoea (Regimen 2A N = 7, Grade 3/4): 0 n (%)
- AE: Epistaxis (Regimen 2A N = 7, Grade 3/4): 0 n (%)
- AE: Fatigue (Regimen 2A N = 7, Grade 3/4): 0 n (%)
- AE: Febrile Neutropenia (Regimen 2A N = 7, Grade 3/4): 2 (28.6) n (%)
- AE: Gamma-Glutamyltransferase Increased (Regimen 2A N = 7, Grade 3/4): 0 n (%)
- AE: General Physical Health Deterioration (Regimen 2A N = 7, Grade 3/4): 0 n (%)
- AE: Gingival Bleeding (Regimen 2A N = 7, Grade 3/4): 0 n (%)
- AE: Graft Versus Host Disease (Regimen 2A N = 7, Grade 3/4): 0 n (%)
